Experiments:
[1] = tested on: Bacillus licheniformis (BL) ATCC 14580; assay type: cell-based; settings: ATCC 14580
Experimental: (§1) All of the bacterial species were grown overnight at 37 °C in LB broth. 10^7 CFU/mL of cells were resuspended in fresh culture and grown until the mid log phase. , The bacterial cells were adjusted to a concentration of 5 × 10^5 CFU/mL to quantify the MIC. Equal volumes of the respective bacterial cultures were incubated with the serially diluted peptides in 96-well microtiter plate and incubated overnight at 37 °C in ambient air. Microorganisms without peptides were treated as the positive control, while uninoculated broth was used as the negative control. The MIC was taken as the lowest peptide concentration at which observable bacteria growth was inhibited, as measured by a microplate reader (Biotek Synergy H1 microplate reader). Experiments were performed in triplicates, and the mean MIC values were determined. A similar study was performed to understand the effect of peptide purity, i.e., ranging from 70 to 95%, on the peptide MIC.

[2] = tested on: Kocuria rosea (KR) ATCC 186; assay type: cell-based
Experimental: as §1

[3] = tested on: Macrococcus caseolyticus (MC) ATCC 13548; assay type: cell-based
Experimental: as §1

[4] = tested on: Micrococcus yunnanensis (MY) ATCC 12698; assay type: cell-based
Experimental: as §1

[5] = tested on: Sphingomonas paucimobilis (SP); assay type: cell-based
Experimental: as §1

[6] = HPLC retention time as a function of peptide hydrophobicity; assay type: physicochemical; settings: chromatographic, Polaris 5 C18-A reverse phase, 0.1% TFA water / 0.1% TFA acetonitrile gradient, 30 min, 300 μM peptide
Experimental: The purity of the peptides was ascertained by high-performance liquid chromatography (HPLC) using Polaris 5 C18-A […] × 4.6 mm reverse phase Zorbax columns from Agilent Technologies. The buffer system contained 0.1% (v/v) TFA in 100% water and 0.1% (v/v) TFA in 100% acetonitrile. Each peptide sample contained 300 μM peptides dissolved in an acetonitrile–water (1:4) mixture. A constant gradient of the two solvent systems was used to generate the chromatogram for 30 min after sample injection.

[7] = tested on: Bacillus licheniformis (BL); assay: Effectiveness of peptides on spiked fuel samples (aqueous layer); assay type: cell-based; set-up: key: (+) =1 (implying peptide activity in fuel environment); (X) = 0 (implying no activity in the desired range, indicated by microbial proliferation); Fuel x = -1(implying no activity in fuel environment); settings: initial screening in spiked fuel
Experimental: (§2) To study the partitioning of microbes in fuel tanks, filter-sterilized fuel was mixed with BH medium in a 1:1 (v/v) ratio. The inoculum was added to the aqueous phase at the bottom to simulate growth in the aqueous layer of fuel tanks and incubated aerobically at 30 °C for 30 days. Visible growth was assessed, and aliquots from both the aqueous and fuel phases were plated on nutrient agar plates to evaluate microbial growth. Peptides were initially added to the aqueous layer of microbially spiked fuel samples for screening the effectiveness in the fuel environment. The study was further extended over a longer duration, and incubated under aerobic conditions at 30 °C for 30 days. Microbial growth was monitored at regular intervals by plating aliquots from the aqueous layer on the nutrient agar plates.
(§3) The engineered peptides were administered at their respective MICs to the aqueous layer of simulated fuel samples, and samples from both the aqueous and solvent (fuel) layers were removed at intervals of 7, 14, 21, and 30 days and plated on LBA plates to assess cell viability (Table S5).

[8] = tested on: Dermacoccus nishinomiyaensis (DN); assay: as above; assay type: cell-based; set-up: key: (+) =1 (implying peptide activity in fuel environment); (X) = 0 (implying no activity in the desired range, indicated by microbial proliferation); Fuel x = -1(implying no activity in fuel environment); settings: initial screening in spiked fuel
Experimental: as §2, §3

Hormoconis resinae (HR) = assay: as above; assay type: cell-based; set-up: key: (+) =1 (implying peptide activity in fuel environment); (X) = 0 (implying no activity in the desired range, indicated by microbial proliferation); Fuel x = -1(implying no activity in fuel environment); settings: initial screening in spiked fuel
Experimental: as §2, §3

Kocuria rosea (KR) = assay: as above; assay type: cell-based; set-up: key: (+) =1 (implying peptide activity in fuel environment); (X) = 0 (implying no activity in the desired range, indicated by microbial proliferation); Fuel x = -1(implying no activity in fuel environment); settings: initial screening in spiked fuel
Experimental: as §2, §3

[9] = tested on: Macrococcus caseolyticus (MC); assay: as above; assay type: cell-based; set-up: key: (+) =1 (implying peptide activity in fuel environment); (X) = 0 (implying no activity in the desired range, indicated by microbial proliferation); Fuel x = -1(implying no activity in fuel environment); settings: initial screening in spiked fuel
Experimental: as §2, §3

[10] = tested on: Micrococcus yunnanensis (MY); assay: as above; assay type: cell-based; set-up: key: (+) =1 (implying peptide activity in fuel environment); (X) = 0 (implying no activity in the desired range, indicated by microbial proliferation); Fuel x = -1(implying no activity in fuel environment); settings: initial screening in spiked fuel
Experimental: as §2, §3

[11] = tested on: Pseudomonas aeruginosa (PA); assay: as above; assay type: cell-based; set-up: key: (+) =1 (implying peptide activity in fuel environment); (X) = 0 (implying no activity in the desired range, indicated by microbial proliferation); Fuel x = -1(implying no activity in fuel environment); settings: initial screening in spiked fuel
Experimental: as §2, §3

Roseomonas mucosa (RM) = assay: as above; assay type: cell-based; set-up: key: (+) =1 (implying peptide activity in fuel environment); (X) = 0 (implying no activity in the desired range, indicated by microbial proliferation); Fuel x = -1(implying no activity in fuel environment); settings: initial screening in spiked fuel
Experimental: as §2, §3

[12] = tested on: Sphingomonas paucimobilis (SP); assay: as above; assay type: cell-based; set-up: key: (+) =1 (implying peptide activity in fuel environment); (X) = 0 (implying no activity in the desired range, indicated by microbial proliferation); Fuel x = -1(implying no activity in fuel environment); settings: initial screening in spiked fuel
Experimental: as §2, §3

[13] = tested on: microbial clusters MY, KR, DN, MC, BL, RM, SP, PA, HR; assay: Broad-spectrum activity score (in-house scoring matrix); settings: sum over 9 microbial clusters: (+) = 1, (X) = 0, Fuel x = -1
Experimental: Table S4. Summarizing the broad-spectrum activity of the peptides, considering the MIC value/ efficacy to control microbial growth upon fuel co-incubation
Peptides Bacterial clusters Fungal
Actinobacteria Firmicutes Proteobacteria Asco- […]
Peptides identified based on the scoring matrix, where (+) =1 (implying peptide activity in fuel environment); (X) = 0 (implying no activity in the desired range, indicated by microbial proliferation); Fuel x = -1(implying no activity in fuel environment).
Clearly, P17 is the best performing peptide in vitro across diverse microbial phyla as well as when incubated in the fuel environment. Based on the activity of the selected peptides, the best

[14] = tested on: Dermacoccus nishinomiyaensis (DN) ATCC 29093; assay type: cell-based
Experimental: as §1

MIC [1] [µM]	MIC [2] [µM]	MIC [3] [µM]	MIC [4] [µM]	MIC [5] [µM]	R t, retention time of peptide on HPLC column as a function of peptide hydrophobicity [6] [min]	activity considering MIC value/efficacy upon fuel co-incubation [7]	activity considering MIC value/efficacy upon fuel co-incubation [8]	activity considering MIC value/efficacy upon fuel co-incubation (Hormoconis resinae (HR))	activity considering MIC value/efficacy upon fuel co-incubation (Kocuria rosea (KR))	activity considering MIC value/efficacy upon fuel co-incubation [9]	activity considering MIC value/efficacy upon fuel co-incubation [10]	activity considering MIC value/efficacy upon fuel co-incubation [11]	activity considering MIC value/efficacy upon fuel co-incubation (Roseomonas mucosa (RM))	activity considering MIC value/efficacy upon fuel co-incubation [12]	MIC [14] [µM]	SMILES	Score [13]
0.9	1.9	125	0.9	0.9	14.075	+	X	X	+	X	+	X	X	+	–	CC[C@H](C)[C@H](N)C(=O)N[C@@H](CC(C)C)C(=O)N[C@@H](Cc1ccccc1)C(=O)N[C@@H](Cc1c[nH]c2ccccc12)C(=O)N[C@@H](CCCCN)C(=O)N[C@@H](Cc1c[nH]c2ccccc12)C(=O)N1CCC[C@H]1C(=O)N[C@@H](Cc1c[nH]c2ccccc12)C(=O)N[C@@H](Cc1c[nH]c2ccccc12)C(=O)N1CCC[C@H]1C(=O)N[C@@H](Cc1c[nH]c2ccccc12)C(=O)N[C@@H](CCCNC(=N)N)C(=O)N[C@@H](CCCNC(=N)N)C(=O)O [P16]	4
1.9	0.9	31.25	0.9	0.9	13.314	+	Fuel x	X	+	X	+	X	X	+	0.9	CC[C@H](C)[C@H](N)C(=O)N[C@@H](CC(C)C)C(=O)N[C@H](C(=O)N[C@@H](Cc1c[nH]c2ccccc12)C(=O)N[C@@H](CCCCN)C(=O)N[C@@H](Cc1c[nH]c2ccccc12)C(=O)N1CCC[C@H]1C(=O)N[C@@H](Cc1c[nH]c2ccccc12)C(=O)N[C@@H](Cc1c[nH]c2ccccc12)C(=O)N1CCC[C@H]1C(=O)N[C@@H](Cc1c[nH]c2ccccc12)C(=O)N[C@@H](CCCNC(=N)N)C(=O)N[C@@H](CCCNC(=N)N)C(=O)O)[C@@H](C)CC [P18]	3
1.9	3.9	–	0.9	0.9	13.667	+	+	X	Fuel x	X	+	X	X	+	0.9	CC[C@H](C)[C@H](N)C(=O)N[C@@H](CC(C)C)C(=O)N[C@@H](CC(C)C)C(=O)N[C@@H](Cc1c[nH]c2ccccc12)C(=O)N[C@@H](CCCCN)C(=O)N[C@@H](Cc1c[nH]c2ccccc12)C(=O)N1CCC[C@H]1C(=O)N[C@@H](Cc1c[nH]c2ccccc12)C(=O)N[C@@H](Cc1c[nH]c2ccccc12)C(=O)N1CCC[C@H]1C(=O)N[C@@H](Cc1c[nH]c2ccccc12)C(=O)N[C@@H](CCCNC(=N)N)C(=O)N[C@@H](CCCNC(=N)N)C(=O)O [P19]	3

From PMC12442081, “Combating Fuel Biocontamination: Tailored Antimicrobial Peptides and an Innovative Delivery Strategy” (ACS Applied Bio Materials, 2025)
